Molecular target: T1, LRRK2 (endogenous, HiBit tagged) (Homo sapiens, UniProt Q5S007)
T1 construct: endogenous in cells; host or cells: HEK293 cells with HiBit knock-in at the endogenous LRRK2 locus, stably expressing firefly luciferase
Experiment: Endogenous LRRK2 degradation assay, endogenous gene C-terminally HiBit-tagged in HEK293 cells (Nano-Glo Dual Luciferase)
Format: cell-based
Settings: endogenous HiBit-tagged LRRK2 in HEK293 cells, 24 hours treatment; for DC50: read-out: Endogenous WT DC50; for Dmax: read-out: Endogenous WT Dmax
Summary of the method: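 LRRK2-HiBit quantified via Nano-Glo Dual Luciferase in HEK293 knock-in cells co-expressing firefly luciferase, after 24 h exposure to compound (1 μM final top, 1:3, 11 points). Values normalised to DMSO median per plate and curve-fitted; Alamar Blue viability run alongside.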

T1 sequence (Q5S007 whole entry): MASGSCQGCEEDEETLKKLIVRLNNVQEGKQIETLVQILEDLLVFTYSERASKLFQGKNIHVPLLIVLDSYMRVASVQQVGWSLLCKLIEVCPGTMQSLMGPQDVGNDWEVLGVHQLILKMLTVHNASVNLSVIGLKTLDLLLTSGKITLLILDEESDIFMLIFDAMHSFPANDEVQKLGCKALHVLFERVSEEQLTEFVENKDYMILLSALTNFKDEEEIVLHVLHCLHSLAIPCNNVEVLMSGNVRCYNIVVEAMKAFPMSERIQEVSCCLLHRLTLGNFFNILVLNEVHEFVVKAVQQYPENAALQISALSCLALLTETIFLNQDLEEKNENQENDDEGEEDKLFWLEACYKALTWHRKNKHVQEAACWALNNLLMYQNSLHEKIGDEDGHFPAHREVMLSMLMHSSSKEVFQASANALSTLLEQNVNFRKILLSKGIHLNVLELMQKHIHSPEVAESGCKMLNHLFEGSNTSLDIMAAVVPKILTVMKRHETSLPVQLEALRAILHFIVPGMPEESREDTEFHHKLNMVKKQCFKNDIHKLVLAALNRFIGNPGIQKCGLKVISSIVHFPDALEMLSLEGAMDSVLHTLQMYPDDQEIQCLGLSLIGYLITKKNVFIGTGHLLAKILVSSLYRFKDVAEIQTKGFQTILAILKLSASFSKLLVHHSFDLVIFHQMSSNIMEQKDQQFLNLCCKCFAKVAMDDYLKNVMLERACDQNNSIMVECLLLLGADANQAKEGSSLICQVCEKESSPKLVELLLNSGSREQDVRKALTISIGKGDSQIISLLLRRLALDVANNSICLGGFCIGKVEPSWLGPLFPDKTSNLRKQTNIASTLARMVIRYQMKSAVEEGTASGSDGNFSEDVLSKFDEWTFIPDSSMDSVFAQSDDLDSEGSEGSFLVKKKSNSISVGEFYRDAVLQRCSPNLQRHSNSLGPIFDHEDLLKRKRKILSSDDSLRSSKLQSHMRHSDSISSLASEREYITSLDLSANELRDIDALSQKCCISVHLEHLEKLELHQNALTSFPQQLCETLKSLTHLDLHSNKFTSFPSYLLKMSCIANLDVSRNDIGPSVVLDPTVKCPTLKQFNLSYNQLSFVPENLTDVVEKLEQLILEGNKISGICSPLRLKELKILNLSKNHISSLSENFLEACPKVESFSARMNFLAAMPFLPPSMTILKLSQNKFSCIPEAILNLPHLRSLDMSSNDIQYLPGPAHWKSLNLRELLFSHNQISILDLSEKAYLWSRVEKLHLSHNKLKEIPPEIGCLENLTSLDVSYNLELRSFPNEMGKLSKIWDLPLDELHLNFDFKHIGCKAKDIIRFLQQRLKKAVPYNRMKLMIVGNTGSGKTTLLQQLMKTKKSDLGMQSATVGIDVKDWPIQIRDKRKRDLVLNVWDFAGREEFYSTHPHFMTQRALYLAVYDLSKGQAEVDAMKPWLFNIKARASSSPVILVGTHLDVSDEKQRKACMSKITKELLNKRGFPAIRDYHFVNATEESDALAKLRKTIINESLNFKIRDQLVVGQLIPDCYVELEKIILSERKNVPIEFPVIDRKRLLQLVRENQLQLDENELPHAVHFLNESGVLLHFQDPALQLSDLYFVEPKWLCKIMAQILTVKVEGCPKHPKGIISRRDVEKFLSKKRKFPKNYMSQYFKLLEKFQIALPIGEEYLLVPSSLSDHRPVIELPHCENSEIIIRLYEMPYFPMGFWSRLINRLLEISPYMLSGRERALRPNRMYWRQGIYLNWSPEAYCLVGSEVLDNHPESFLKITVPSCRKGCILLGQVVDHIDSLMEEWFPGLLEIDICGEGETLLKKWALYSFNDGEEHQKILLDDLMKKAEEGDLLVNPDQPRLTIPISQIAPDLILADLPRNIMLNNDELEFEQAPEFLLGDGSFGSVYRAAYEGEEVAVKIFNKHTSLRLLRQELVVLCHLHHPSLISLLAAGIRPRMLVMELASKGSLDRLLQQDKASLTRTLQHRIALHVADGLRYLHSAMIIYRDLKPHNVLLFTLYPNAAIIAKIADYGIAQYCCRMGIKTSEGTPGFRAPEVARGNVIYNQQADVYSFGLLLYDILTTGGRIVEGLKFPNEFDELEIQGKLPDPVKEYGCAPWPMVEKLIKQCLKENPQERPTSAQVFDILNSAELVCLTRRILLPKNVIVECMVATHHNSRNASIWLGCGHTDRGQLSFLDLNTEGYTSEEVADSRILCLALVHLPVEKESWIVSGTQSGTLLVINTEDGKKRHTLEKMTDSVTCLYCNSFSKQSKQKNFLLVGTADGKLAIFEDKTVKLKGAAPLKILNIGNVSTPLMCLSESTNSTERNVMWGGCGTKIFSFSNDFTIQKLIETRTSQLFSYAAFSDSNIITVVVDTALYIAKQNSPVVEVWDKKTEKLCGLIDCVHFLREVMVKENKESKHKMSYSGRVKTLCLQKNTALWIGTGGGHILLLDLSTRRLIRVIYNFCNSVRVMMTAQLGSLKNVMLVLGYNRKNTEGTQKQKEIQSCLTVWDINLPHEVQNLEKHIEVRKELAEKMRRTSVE

| SMILES | DC50 [nM] | Dmax [%] |
| --- | --- | --- |
| CC1(Oc2ccc3[nH]nc(-c4cc(N5CCC(CC6(F)CCN(CC7CCN(c8c(F)cc9c(c8F)CN(C8CCC(=O)NC8=O)C9=O)CC7)CC6)CC5)ncn4)c3c2)CC1 (stereo not drawn) [Compound 223, 3-{4,6-difluoro-5-[4-({4-fluoro-4-[(1-{6-[5-(1-methylcyclopropoxy)-1H-indazol-3-yl]pyrimidin-4-yl}piperidin-4-yl)methyl]piperidin-1-yl}methyl)piperidin-1-yl]-1-oxo-2,3-dihydro-1H-isoindol-2-yl}piperidine-2,6-dione] | 10 to 50 | 50 to 70 |
| CC1(Oc2ccc3[nH]nc(-c4cc(N5CCC(CN6CC7CC(C6)N7CC6CCN(c7ccc8c(c7F)CN(C7CCC(=O)NC7=O)C8=O)CC6)CC5)ncn4)c3c2)CC1 (stereo not drawn) [Compound 225, 3-{4-fluoro-5-[4-({3-[(1-{6-[5-(1-methylcyclopropoxy)-1H-indazol-3-yl]pyrimidin-4-yl}piperidin-4-yl)methyl]-3,6-diazabicyclo[3.1.1]heptan-6-yl}methyl)piperidin-1-yl]-1-oxo-2,3-dihydro-1H-isoindol-2-yl}piperidine-2,6-dione] | < 10 | 50 to 70 |
| CC1(Oc2ccc3n[nH]c(-c4cc(N5CCC(O[C@H]6CC[C@H](OC7CCN(c8ccc9c(c8F)CN(C8CCC(=O)NC8=O)C9=O)CC7)CC6)CC5)ncn4)c3c2)CC1 (stereo partly drawn) [Compound 228, 3-[4-fluoro-5-[4-[4-[[1-[6-[5-(1-methylcyclopropoxy)-2H-indazol-3-yl]pyrimidin-4-yl]-4-piperidyl]oxy]cyclohexoxy]-1-piperidyl]-1-oxo-isoindolin-2-yl]piperidine-2,6-dione] | 10 to 50 | 50 to 70 |
| CC1(Oc2cc3c(-c4cc(N5CCC(O[C@H]6C[C@@H](OC7CCN(c8ccc9c(c8F)CN(C8CCC(=O)NC8=O)C9=O)CC7)C6)CC5)ncn4)n[nH]c3cn2)CC1 (stereo partly drawn) [Compound 233, 3-(4-fluoro-1-oxo-5-{4-[(1s,3s)-3-[(1-{6-[5-(1-methylcyclopropoxy)-1H-pyrazolo[3,4-c]pyridin-3-yl]pyrimidin-4-yl}piperidin-4-yl)oxy]cyclobutoxy]piperidin-1-yl}-2,3-dihydro-1H-isoindol-2-yl)piperidine-2,6-dione] | < 10 | 50 to 70 |
| CC1(Oc2ccc3n[nH]c(-c4cc(N5CCN(C[C@H]6CC[C@H](OC7CCN(c8ccc9c(c8F)CN(C8CCC(=O)NC8=O)C9=O)CC7)CC6)CC5)ncn4)c3c2)CC1 (stereo partly drawn) [Compound 234, 3-[4-fluoro-5-[4-[4-[[4-[6-[5-(1-methylcyclopropoxy)-2H-indazol-3-yl]pyrimidin-4-yl]piperazin-1-yl]methyl]cyclohexoxy]-1-piperidyl]-1-oxo-isoindolin-2-yl]piperidine-2,6-dione] | < 10 | 50 to 70 |
| CC1(Oc2ccc3n[nH]c(-c4cc(N5CCN(C[C@H]6CC[C@H](OC7CCN(c8cc9c(cc8F)C(=O)N(C8CCC(=O)NC8=O)C9)CC7)CC6)CC5)ncn4)c3c2)CC1 (stereo partly drawn) [Compound 235, 3-[6-fluoro-5-[4-[4-[[4-[6-[5-(1-methylcyclopropoxy)-2H-indazol-3-yl]pyrimidin-4-yl]piperazin-1-yl]methyl]cyclohexoxy]-1-piperidyl]-1-oxo-isoindolin-2-yl]piperidine-2,6-dione] | < 10 | 50 to 70 |
| CC1(Oc2ccc3[nH]nc(-c4cc(N5CCC(CN6CCN(CC7CCN(c8ccc9c(c8F)CN(C8CCC(=O)NC8=O)C9=O)CC7)C(C)(C)C6)CC5)ncn4)c3c2)CC1 (stereo not drawn) [Compound 236, 3-[5-[4-[[2,2-dimethyl-4-[[1-[6-[5-(1-methylcyclopropoxy)-1H-indazol-3-yl]pyrimidin-4-yl]-4-piperidyl]methyl]piperazin-1-yl]methyl]-1-piperidyl]-4-fluoro-1-oxo-isoindolin-2-yl]piperidine-2,6-dione] | < 10 | 50 to 70 |
| CC1(Oc2ccc3[nH]nc(-c4cc(N5CCC(CN6C7CC6CN(CC6CCN(c8ccc9c(c8F)CN(C8CCC(=O)NC8=O)C9=O)CC6)C7)CC5)ncn4)c3c2)CC1 (stereo not drawn) [Compound 237, 3-{4-fluoro-5-[4-({6-[(1-{6-[5-(1-methylcyclopropoxy)-1H-indazol-3-yl]pyrimidin-4-yl}piperidin-4-yl)methyl]-3,6-diazabicyclo[3.1.1]heptan-3-yl}methyl)piperidin-1-yl]-1-oxo-2,3-dihydro-1H-isoindol-2-yl}piperidine-2,6-dione] | < 10 | ≥ 70 |
| COc1c(N2CCC(O[C@H]3CC[C@H](CN4CCN(c5cc(-c6[nH]nc7ccc(OC8(C)CC8)cc67)ncn5)CC4)CC3)CC2)ccc2c1CN(C1CCC(=O)NC1=O)C2=O (stereo partly drawn) [Compound 238, 3-[4-methoxy-1-oxo-5-(4-{[(1r,4r)-4-[(4-{6-[5-(1-methylcyclopropoxy)-2H-indazol-3-yl]pyrimidin-4-yl}piperazin-1-yl)methyl]cyclohexyl]oxy}piperidin-1-yl)-2,3-dihydro-1H-isoindol-2-yl]piperidine-2,6-dione] | < 10 | 50 to 70 |
| CC1(Oc2ccc3[nH]nc(-c4cc(N5CCC(CN6CCN(CC7CCN(c8ccc9c(c8Cl)CN(C8CCC(=O)NC8=O)C9=O)CC7)CC6)CC5)ncn4)c3c2)CC1 (stereo not drawn) [Compound 239, 3-[4-chloro-5-[4-[[4-[[1-[6-[5-(1-methylcyclopropoxy)-1H-indazol-3-yl]pyrimidin-4-yl]-4-piperidyl]methyl]piperazin-1-yl]methyl]-1-piperidyl]-1-oxo-isoindolin-2-yl]piperidine-2,6-dione] | < 10 | ≥ 70 |

The next lines start with the values.

| DC50 [nM] | Dmax [%] | SMILES |
| --- | --- | --- |
| < 10 | ≥ 70 | C[C@H]1CN(CC2CCN(c3cc(-c4n[nH]c5ccc(OC6(C)CC6)cc45)ncn3)CC2)CCN1CC1CCN(c2ccc3c(c2F)CN(C2CCC(=O)NC2=O)C3=O)CC1 (stereo partly drawn) [Compound 222, 3-[4-fluoro-5-(4-{[(2S)-2-methyl-4-[(1-{6-[5-(1-methylcyclopropoxy)-1H-indazol-3-yl]pyrimidin-4-yl}piperidin-4-yl)methyl]piperazin-1-yl]methyl}piperidin-1-yl)-1-oxo-2,3-dihydro-1H-isoindol-2-yl]piperidine-2,6-dione] |
| < 10 | 50 to 70 | CC1(Oc2ccc3[nH]nc(-c4cc(N5CCC(CN6CCN(CC7CCN(c8ccc9c(c8F)CN(C8CCC(=O)NC8=O)C9=O)CC7)CC6(C)C)CC5)ncn4)c3c2)CC1 (stereo not drawn) [Compound 224, 3-[5-[4-[[3,3-dimethyl-4-[[1-[6-[5-(1-methylcyclopropoxy)-1H-indazol-3-yl]pyrimidin-4-yl]-4-piperidyl]methyl]piperazin-1-yl]methyl]-1-piperidyl]-4-fluoro-1-oxo-isoindolin-2-yl]piperidine-2,6-dione] |
| < 10 | 50 to 70 | CC1(Oc2ccc3n[nH]c(-c4cc(N5CCC(CN6C[C@H]7C[C@@H]6CN7CC6CCN(c7ccc8c(c7F)CN(C7CCC(=O)NC7=O)C8=O)CC6)CC5)ncn4)c3c2)CC1 (stereo partly drawn) [Compound 226, 3-[4-fluoro-5-(4-{[(1R,4R)-5-[(1-{6-[5-(1-methylcyclopropoxy)-2H-indazol-3-yl]pyrimidin-4-yl}piperidin-4-yl)methyl]-2,5-diazabicyclo[2.2.1]heptan-2-yl]methyl}piperidin-1-yl)-1-oxo-2,3-dihydro-1H-isoindol-2-yl]piperidine-2,6-dione] |
| < 10 | 50 to 70 | CC1(Oc2cc3c(-c4cc(N5CCC(O[C@H]6CC[C@H](OC7CCN(c8ccc9c(c8F)CN(C8CCC(=O)NC8=O)C9=O)CC7)CC6)CC5)ncn4)n[nH]c3cc2F)CC1 (stereo partly drawn) [Compound 227, 3-[4-fluoro-1-oxo-5-(4-{[(1r,4r)-4-[(1-{6-[6-fluoro-5-(1-methylcyclopropoxy)-1H-indazol-3-yl]pyrimidin-4-yl}piperidin-4-yl)oxy]cyclohexyl]oxy}piperidin-1-yl)-2,3-dihydro-1H-isoindol-2-yl]piperidine-2,6-dione] |
| < 10 | 50 to 70 | CC1(Oc2cc3c(-c4cc(N5CCC(CN6CCN(CC7(F)CCN(c8ccc9c(c8F)CN(C8CCC(=O)NC8=O)C9=O)CC7)CC6)CC5)ncn4)[nH]nc3cc2F)CC1 (stereo not drawn) [Compound 229, 3-{4-fluoro-5-[4-fluoro-4-({4-[(1-{6-[6-fluoro-5-(1-methylcyclopropoxy)-2H-indazol-3-yl]pyrimidin-4-yl}piperidin-4-yl)methyl]piperazin-1-yl}methyl)piperidin-1-yl]-1-oxo-2,3-dihydro-1H-isoindol-2-yl}piperidine-2,6-dione] |
| < 10 | 50 to 70 | CC1(Oc2ccc3[nH]nc(-c4cc(N5CCC(CN6C[C@@H]7C[C@H]6CN7CC6CCN(c7ccc8c(c7F)CN(C7CCC(=O)NC7=O)C8=O)CC6)CC5)ncn4)c3c2)CC1 (stereo partly drawn) [Compound 230, 3-[4-fluoro-5-(4-{[(1S,4S)-5-[(1-{6-[5-(1-methylcyclopropoxy)-1H-indazol-3-yl]pyrimidin-4-yl}piperidin-4-yl)methyl]-2,5-diazabicyclo[2.2.1]heptan-2-yl]methyl}piperidin-1-yl)-1-oxo-2,3-dihydro-1H-isoindol-2-yl]piperidine-2,6-dione] |
| < 10 | 50 to 70 | CC1(Oc2ccc3[nH]nc(-c4cc(N5CCC(CN6CCC(F)(CC7CCN(c8ccc9c(c8F)CN(C8CCC(=O)NC8=O)C9=O)CC7)CC6)CC5)ncn4)c3c2)CC1 (stereo not drawn) [Compound 231, 3-[4-fluoro-5-[4-[[4-fluoro-1-[[1-[6-[5-(1-methylcyclopropoxy)-1H-indazol-3-yl]pyrimidin-4-yl]-4-piperidyl]methyl]-4-piperidyl]methyl]-1-piperidyl]-1-oxo-isoindolin-2-yl]piperidine-2,6-dione] |
| < 10 | 50 to 70 | CC1(Oc2cc3c(-c4cc(N5CCC(CN6CCC(F)(CC7CCN(c8ccc9c(c8F)CN(C8CCC(=O)NC8=O)C9=O)CC7)CC6)CC5)ncn4)n[nH]c3cc2F)CC1 (stereo not drawn) [Compound 232, 3-{4-fluoro-5-[4-({4-fluoro-1-[(1-{6-[6-fluoro-5-(1-methylcyclopropoxy)-1H-indazol-3-yl]pyrimidin-4-yl}piperidin-4-yl)methyl]piperidin-4-yl}methyl)piperidin-1-yl]-1-oxo-2,3-dihydro-1H-isoindol-2-yl}piperidine-2,6-dione] |
